Test results: patent publication US8093262B2 (priority 2005, dated 2012)
Read-outs that look alike come from different tables or passages of the source.

How the values were obtained:
mice [1] = details: established antiepileptic drugs; cited from earlier work
Swiss Webster NIH mice = assay: Formalin test for antinociceptive activity (paw licking/biting); type: in vivo; details: 1 mg/kg i.p.
Description: The formalin test for antinociceptive activity is described in numerous publications, e.g., Hunskaar, S., O. B. Fasmer, and K. Hole, J. Neurosci. […] The formalin test is accepted as an art recognized model of persistent clinical pain.
Male Swiss Webster NIH mice (20-30 g; Harlan, San Diego, Calif.) were used in the experiments described herein. Food was withdrawn on the day of experiment. Mice were placed in Plexiglass jars for at least 1 hour to accommodate to the environment. Following the accommodation period, mice were weighed and given either a huperzine compound administered intraperitoneal (i.p.) or oral (p.o.), or the appropriate volume of vehicle (10% Tween-80). Fifteen minutes after the i.p. dosing, and 30 minutes after the p.o. dosing mice were injected with formalin (20 μL of 5% formaldehyde solution in saline) into the dorsal surface of the right hind paw. Mice were transferred to the Plexiglass jars and monitored for the amount of time spent licking or biting the injected paw. Periods of licking and biting were recorded in 5 minute intervals for 40 minutes after the formalin injection. […] The early phase (acute) of the formalin response is measured as licking/biting between 0-5 minutes, and the late phase (inflammatory) is measured from 10-40 minutes. Differences between vehicle and drug treated groups are analyzed by one-way analysis of variance (ANOVA). […]

mice [2] = type: in vivo; details: for N/F, Time to Peak Effect: IP, 32 mA, 0.83 mg/kg; for COMMENT (observed effects): ip
Description: (§1) Seizure testing was carried out as follows.

mice [3] = assay: Maximal Electroshock (MES) seizure test, mice, i.p.; type: in vivo; details: 1 mg/kg
Description: This toxicity profile is generally not observed in humans. Thus, a higher relative dose of a huperzine compound is tolerated in humans compared to rodents.
as §1

patients = details: human, in vivo; cited from earlier work
[4] = type: physicochemical
rats [5] = assay: Toxicity (TOX) / minimal motor impairment, rats; type: in vivo; details: for Behavioral motor impairment, animals affected: rat, in vivo, po
Description: (§2) Peak anticonvulsant activity was observed one-hour after p.o. administration of 1 mg/kg.

rats [6] = assay: Subcutaneous Metrazol (SCMET / scPTZ) seizure test, rats, oral; type: in vivo
Description: as §2

mice [7] = assay: Toxicity model (TOX), rotorod, mice; type: in vivo; details: for TOX observation code: i.p.; for TOX N/F (mice showing an effect / mice tested): mouse, in vivo, ip
mice [8] = assay: Subcutaneous Metrazol (SCMET / scPTZ) seizure test, mice, i.p.; type: in vivo
Description: as §1

SMILES: NC(=O)N1c2ccccc2C=Cc2ccccc21 [carbamazepine]
- Efficacy in the 6 Hz psychomotor seizure model (mice [1]): limited efficacy

SMILES: O=C1NC(=O)C(c2ccccc2)(c2ccccc2)N1 [phenyloin]
- Efficacy in the 6 Hz psychomotor seizure model (mice [1]): limited efficacy

SMILES: C/C=C1\[C@H]2C=C(C)C[C@]1(N)c1ccc(=O)[nH]c1C2 [Huperzine A]
- Inhibition of phase 1 (acute) pain response (Swiss Webster NIH mice): complete inhibition
- Inhibition of phase 2 (inflammatory) pain response (Swiss Webster NIH mice): complete inhibition
- Protection in the mouse 6 Hz test (FIG. 1) (mice [2]; 0.8 mg/kg): time-dependent protection
- N/F, Time to Peak Effect (mice [2]; 0.25 h): 1/4
- N/F, Time to Peak Effect (mice [2]; 0.5 h): 1/4
- N/F, Time to Peak Effect (mice [2]; 1.0 h): 4/4
- N/F, Time to Peak Effect (mice [2]; 2.0 h): 2/4
- N/F, Time to Peak Effect (mice [2]; 4.0 h): 0/4
- Protection against 6 Hz seizures (FIG. 2) (mice [2]; mouse, in vivo): dose-dependent protection
- COMMENT (observed effects) (mice [2]; mouse, in vivo, 0.18 mg/kg): Minimal motor impairment
- COMMENT (observed effects) (mice [2]; mouse, in vivo, 0.2 mg/kg): Tremors
- COMMENT (observed effects) (mice [2]; mouse, in vivo, 0.35 mg/kg): Minimal motor impairment
- Protection in the mouse MES test (FIG. 1) (mice [3]): time-dependent protection
- Adverse effects in patients (patients): adverse effects were noted infrequently
- Solubility in the methyl cellulose solvent [4]: not soluble
- Toxicity (rats [5]; oral, 1 mg/kg, any of the animals): no toxicity
- Behavioral motor impairment, animals affected (rats [5]; 2 mg/kg): 75%
- Behavioral motor impairment, animals affected (rats [5]; 4 mg/kg): 100%
- Time of peak anticonvulsant activity (rats [6]; after p.o. administration of 1 mg/kg): one-hour
- Time of peak activity post administration (rats [6]; oral, 1 mg/kg, rat MES and SCMET time course): between 30 minutes and two hours
- TOX observation code (mice [7]; 1 mg/kg SOL, 0.5 h): 4/4 (T)^2
- TOX observation code (mice [7]; 1 mg/kg SOL, 4.0 h): 2/2 (T)
- TOX observation code (mice [7]; 3 mg/kg SUS, 4.0 h): 4/4 (T)
- TOX observation code (mice [7]; 10 mg/kg SUS, 4.0 h): 2/2 (T)
- TOX observation code (mice [7]; 30 mg/kg SUS, 0.5 h): 4/4 (D)^3
- TOX observation code (mice [7]; 100 mg/kg SUS, 0.5 h): 8/8 (D)
- TOX observation code (mice [7]; 300 mg/kg SUS, 0.5 h): 4/4 (D)
- TD50 (mice [7]; mice): 0.83 mg/kg
- TOX N/F (mice showing an effect / mice tested) (mice [7]; 0.1 mg/kg, 4 h): 0/4
- TOX N/F (mice showing an effect / mice tested) (mice [7]; 0.3 mg/kg, 4 h): 0/4
- TOX N/F (mice showing an effect / mice tested) (mice [7]; 1 mg/kg, 0.5 h): 4/4 (T)^2
- TOX N/F (mice showing an effect / mice tested) (mice [7]; 1 mg/kg, 4 h): 2/2 (T)
- TOX N/F (mice showing an effect / mice tested) (mice [7]; 3 mg/kg, 0.5 h): 8/8
- TOX N/F (mice showing an effect / mice tested) (mice [7]; 3 mg/kg, 4 h): 4/4 (T)
- TOX N/F (mice showing an effect / mice tested) (mice [7]; 10 mg/kg, 0.5 h): 4/4
- TOX N/F (mice showing an effect / mice tested) (mice [7]; 10 mg/kg, 4 h): 2/2 (T)
- TOX N/F (mice showing an effect / mice tested) (mice [7]; 30 mg/kg, 0.5 h): 4/4 (D)^3
- TOX N/F (mice showing an effect / mice tested) (mice [7]; 100 mg/kg, 0.5 h): 8/8 (D)
- TOX N/F (mice showing an effect / mice tested) (mice [7]; 300 mg/kg, 0.5 h): 4/4 (D)
- SCMET N/F (mice showing an effect / mice tested) (mice [8]; 1 mg/kg SOL, 0.5 h): 3/5
- SCMET N/F (mice showing an effect / mice tested) (mice [8]; 3 mg/kg SUS, 0.5 h): 1/1
- SCMET N/F (mice showing an effect / mice tested) (mice [8]; 10 mg/kg SUS, 4.0 h): 1/1

SMILES: Nc1nnc(-c2cccc(Cl)c2Cl)c(N)n1 [lamotrigine]
- Efficacy in the 6 Hz psychomotor seizure model (mice [1]): limited efficacy

SMILES: CC1(C)O[C@@H]2[C@@H](CO[C@@]3(COS(N)(=O)=O)OC(C)(C)O[C@@H]23)O1 [topiramate]
- Efficacy in the 6 Hz psychomotor seizure model (mice [1]): limited efficacy
